From US20180291070A1, “PEPTIDES, AND USES THEREOF” (priority 2015, published 2018) come the findings set out here.

For test [1], the system named is TNF-α. In words: TNF-α secretion by LPS-stimulated THP-1 differentiated macrophages (Biolegend ELISA). Format: cell-based, human. Particulars: for TNF-α DECREASE: THP-1 cells, 100, 10 or 1 ng/ml synthetic peptide 24 h, then 10 ng/ml LPS 5 h, vs untreated control. The protocol:
TNF-α is secreted by macrophages in response to stimulation by endotoxins such as lipopolysaccharides (LPS). TNF-α is thought to be involved in systemic inflammation and dysregulation of TNF-α production is thought to be involved in many diseases. The Biolegend assay is a sandwich ELISA kit that is designed for the accurate quantitation of human TNF-α from cell culture supernatant, serum or plasma.
THP-1 monocytes were seeded in a 96 well plate at 10,000 cells per well in RPMI containing 10% fetal calf serum (FCS), 1% Pen/strep, 1% L-glutamine, 100 nM PMA and allowed to differentiated for 72 h prior to experimentation.
Following differentiation the cells were incubated with 100 ng/ml, 10 ng/ml or 1 ng/ml synthetic peptide for 24 h respectively.
Following treatment the cells were stimulated with 10 ng/ml LPS for 5 h and the quantity of TNF-α in the supernatant determined using the Biolegend assay ELISA kit.
Results were calculated as a percentage of the untreated control. An increase in optical density reading indicates greater quantity of TNF-α release into cell culture supernatant.
All experiments were prepared in duplicate on three plates (6 wells/conditions). Significance was calculated using Students t-test (*p<0.05 compared to control, **p<0.01 compared to control, *** p<0.001 compared to control).

Test [2] deals with Human Dermal Fibroblasts (HDF). Description: BrdU Cell Proliferation Assay. Particulars: 5, 0.5 or 0.05 μg/ml synthetic peptide 24 h. Format: cell-based. The protocol: BrDu is incorporated into newly synthesised DNA strands of actively proliferating cells. Following partial denaturation of double stranded DNA, Brdu is detected immunochemically allowing the assessment of the population of cells which are synthesizing DNA. Human Dermal Fibroblasts (HDF—Sigma 10605a) were seeded in a 96 well plate at 10,000 cells per well in DMEM containing 10% fetal calf serum (FCS), 1% Pen/strep, 1% L-glutamine and allowed to adhere for 24 h. Following the initial 24 h incubation the cells were incubated with 5 μg/ml, 0.5 μg/ml or 0.05 μg/ml synthetic peptide for 24 h respectively. After 18 h incubation with synthetic peptides 20 μl BrDu reagent was added to each well. At 24 h incubation the cell were fixed and the amount of […] was measured using the BrdU Cell Proliferation Assay, all steps were carried out according to the manufacturer's instructions. Results were calculated as a percentage of the untreated control. An increase in optical density reading indicates greatER incorporation of BrDu and increase cell proliferation.

Where “and” joins values, the source holds several entries; their conditions need not be identical. Equal entries are not always repeated.

For the substance “344 (ARLSPGDVVIIPAGHPVAIT) [compound 344]”, in test [1], the “TNF-α DECREASE” value was 20%.
With 252 (VIPVNGPGKF) [compound 252], the “INCREASE IN PROLIFERATION” value in test [2] came out at 111%.
With “461 (YGEGSSEEGYYGEQQQQPGMTR) [compound 461]”, the “INCREASE IN PROLIFERATION” value in test [2] stood at 85%.
Same read-out and setting: as for 455 (QQQQPGMTRV) [compound 455], the figure is 47%; as for 468 (ALVAKRLQGQNDQRGEI) [compound 468], 82%.
On the same count and under the same terms, as for 502 (GAFTPLQYK) [compound 502], the figure is 68%; as for 471 (YSNTPGMVY) [compound 471], 38%.
Still for that read-out and setting: as for 121 (PNVNPWHNPRQGGF) [compound 121], the figure is 48%; as for 472 (LVPRYSNTPGM) [compound 472], 77%; as for 248 (DNVISQIENPVKE) [compound 248], 86%.
For 112 (GEELGAFTPR) [compound 112], in test [2], the “INCREASE IN PROLIFERATION” value is on record as 15%.
Still for that read-out and setting: as for 482 (ASLQEQEQGQVQSR) [compound 482], the figure is 113%; as for 473 (FYNEGDAPVV) [compound 473], 41%.
Regarding “351 (LSPGDVVIIPAGHPVAITASSNL) [compound 351]”, the “TNF-α DECREASE” value in test [1] was determined as 18%.
As for 330 (NKNQYLRGFS) [compound 330], the “INCREASE IN PROLIFERATION” value in test [2] amounted to 18%.
The same measure, in the same setting: the figure for 505 (FLLAGNKRNPQAYR) [compound 505] is 118%; for 467 (NGVLRPGQL) [compound 467] it is 90%; for 226 (KEDDEEEEQGEEEINK) [compound 226] it is 30%.
The same measure, in the same setting: the figure for “158 (NNQRNFLAGDEDNVISQIQRPVKE) [compound 158]” is 21%; for 462 (QQQQPGMTRVR) [compound 462] it is 15%; for 479 (VEERSQNIFSGF) [compound 479] it is 106%.
Turning to 257 (LPQHIDADL) [compound 257], the “INCREASE IN PROLIFERATION” value in test [2] amounted to 118%.
On the same count and under the same terms, as for 124 (FYNEGDAPVVAL) [compound 124], the figure is 15%; as for 83 (SYQDVYNVAESS) [compound 83], 32%.
“341 (RGDTIKLPAGTTSYLVNQDDEE) [compound 341]”: the “INCREASE IN PROLIFERATION” value in test [2] turned out to be 83%. Also, in test [1], the “TNF-α DECREASE” value worked out at 21%.
Regarding QSFLLSGNQ [E_1_788], the “TNF-α secretion reduced vs. untreated cells” value in test [1] (THP-1 differentiated macrophages treated 24 hrs. prior to LPS stimulation) was determined as 80%.
452 (YYGEQQQQPGMTR) [compound 452]: in test [2], the “INCREASE IN PROLIFERATION” value is reported as 76%.
The same measure, in the same setting: as for “359 (GTSSVINNLPLDVVAATFNLQRNE) [compound 359]”, the figure is 15%; as for 365 (AGTSSVINNLPLDV) [compound 365], 58%.
For 75 (IYVTDLNNGANQLDPRQRD) [compound 75], the “TNF-α DECREASE” value in test [1] is 11%.
For the substance 222 (DDEEEEQGEEEINK) [compound 222], in test [2], the “INCREASE IN PROLIFERATION” value is 110%.
On to “345 (RGDTIKLPAGTTSYLVNQDDE) [compound 345]”, for which the “TNF-α DECREASE” value in test [1] was determined as 23%.
Still for that read-out and setting: the figure for 91 (TVFNGELR) [compound 91] is 80%.
Consider “460 (GEGSSEEGYYGEQQQQPGMTR) [compound 460]”, for which the “INCREASE IN PROLIFERATION” value in test [2] stood at 38%.
Same read-out and setting: the figure for 98 (RGLSLLQPYASLQ) [compound 98] is 49%.
92 (QVQVVNNNGKTVF) [compound 92]: the “TNF-α DECREASE” value in test [1] was determined as 13%.
Still for that read-out and setting: the figure for “352 (ARLSPGDVVIIPAGHPVAITA) [compound 352]” is 23%.
465 (TVFNGVLRPGQLL) [compound 465]: the “INCREASE IN PROLIFERATION” value in test [2] worked out at 96%.
Take 320 (KRHGEWRPSYEKEEDEE) [compound 320]: the “TNF-α DECREASE” value in test [1] is recorded as 13%.
On to “403 (HPVAVRASSNLNLLGFGINAE) [compound 403]”, for which, in test [2], the “INCREASE IN PROLIFERATION” value amounted to 51%.
As to 339 (ASSNLNLLGF) [compound 339], in test [1], the “TNF-α DECREASE” value turned out to be 26%.
Consider 474 (FYNEGDAPVVAL) [compound 474], for which the “INCREASE IN PROLIFERATION” value in test [2] is on record as 121%.
The same measure, in the same setting: the figure for 478 (EVEERSQNIF) [compound 478] is 76%; for 503 (QGDVIALPAGVAHW) [compound 503] it is 125%.
With 477 (FYNEGDAPVVA) [compound 477], the “INCREASE IN PROLIFERATION” value in test [2] came to 81%.
The same measure, in the same setting: as for 84 (ISREEAQR) [compound 84], the figure is 20%.
For the substance “454 (YYGEGSSEEGYYGEQQQQPGMTR) [compound 454]”, the “INCREASE IN PROLIFERATION” value in test [2] worked out at 38%.
Still for that read-out and setting: as for 97 (GEIVRVER) [compound 97], the figure is 26%.
On to 480 (ASLQEQEQGQVQ) [compound 480], for which the “INCREASE IN PROLIFERATION” value in test [2] is on record as 102%.
Take 181 (DLAIPVNRPGQLQS) [compound 181]: in test [2], the “INCREASE IN PROLIFERATION” value came to 33%.
The same measure, in the same setting: as for 146 (VFIDHPSFLEK) [compound 146], the figure is 80%; as for “463 (QYAAQLPSMCRVEPQQCSIFAAGQY) [compound 463]”, 100%.
Regarding “76 (VTNLNSQNFPILNLVQMSAVK) [compound 76]”, the “TNF-α DECREASE” value in test [1] is 9%.
For the substance 272 (PSYEKEEDEEEGQR) [compound 272], the “INCREASE IN PROLIFERATION” value in test [2] worked out at 97%.
Consider 346 (ARLSPGDVVIIPAGHPVA) [compound 346], for which the “TNF-α DECREASE” value in test [1] is given as 18%.
For “457 (SYEESMPMPLEQGWSSSSSEY) [compound 457]”, the “INCREASE IN PROLIFERATION” value in test [2] came to 114%.
On the same count and under the same terms, as for “73 (SIFRALPNDVLANAYRISREE) [compound 73]”, the figure is 16%; as for 496 (GAFTPLQYKSYQD) [compound 496], 51% and 81%.
The same measure, in the same setting: the figure for 500 (DFLLAGNK) [compound 500] is 6%; for 337 (NKNQYLRGFSKNILE) [compound 337] it is 8%.
Still for that read-out and setting: as for “247 (LVDLVIPVNGPGKFEAFDLAK) [compound 247]”, the figure is 28%; as for 253 (SKKSLPSE) [compound 253], 112%.
On to 464 (TVFNGVLRPGQL) [compound 464], for which the “INCREASE IN PROLIFERATION” value in test [2] stood at 18%.
On the same count and under the same terms, as for “249 (VVIIPAGHPVAITASSNLNLLGFG) [compound 249]”, the figure is 30%.
Take 93 (YIIQGRGITGPTF) [compound 93]: in test [2], the “INCREASE IN PROLIFERATION” value is recorded as 26%. Also, the “TNF-α DECREASE” value in test [1] came out at 14%.
Take 497 (GLLLPHYTNGASLVY) [compound 497]: the “INCREASE IN PROLIFERATION” value in test [2] is recorded as 58%.
As to “350 (ARLSPGDVVIIPAGHPVAITAS) [compound 350]”, in test [1], the “TNF-α DECREASE” value stood at 80%.
As to “495 (SGFSTELLSEALGVSSQVAR) [compound 495]”, the “INCREASE IN PROLIFERATION” value in test [2] is reported as 68%.
For the substance 501 (DVLANAYR) [compound 501], in test [2], the “INCREASE IN PROLIFERATION” value was found to be 43%.
In the case of 270 (HGEWRPSYEKQEDEEEK) [compound 270], the “INCREASE IN PROLIFERATION” value in test [2] worked out at 47%.
As to 144 (AGILEADR) [compound 144], the “TNF-α DECREASE” value in test [1] amounted to 16%.
Regarding 74 (SIFRALPND) [compound 74], in test [2], the “INCREASE IN PROLIFERATION” value is reported as 29%.
Still for that read-out and setting: as for “114 (SIEQHSGQNIFSGFNNELLSEALGVNALVAK) [compound 114]”, the figure is 119%; as for 470 (PRYSNTPGMV) [compound 470], 119%; as for “410 (TLFLPQYTDADFILVVLSGK) [compound 410]”, 73%.
On the same count and under the same terms, as for “453 (SYEESMPMPLEQGWSSSSSE) [compound 453]”, the figure is 25%; as for 285 (VVIIPAGHPVA) [compound 285], 81%.
For “349 (LSPGDVVIIPAGHPVAITASSNLNLLGFGINAENNER) [compound 349]”, in test [1], the “TNF-α DECREASE” value is on record as 6%.
As to 499 (ALPTDVLANAYR) [compound 499], in test [2], the “INCREASE IN PROLIFERATION” value is reported as 113%.
Same read-out and setting: as for 504 (FGAFTPLQYKSY) [compound 504], the figure is 119%.
Take 353 (HGPVEMPYTLLYPSSK) [compound 353]: the “TNF-α DECREASE” value in test [1] was 20%.
Take 256 (IPVNGPGKF) [compound 256]: the “INCREASE IN PROLIFERATION” value in test [2] came out at 117%.
